Test results taken from paper PMC7377239, “Cardiovascular Effects of Polychlorinated Biphenyls and Their Major Metabolites” (Environmental Health Perspectives, 2020).
Counter-ions that a name gives are not always drawn. Like-named read-outs stand apart in the source and are kept apart here.

Experiments:
[1] = system: iCell cardiomyocytes (human iPSC-derived cardiomyocytes); assay: High-content imaging of cytotoxicity and mitochondrial integrity in iPSC-CMs; assay type: cell-based; settings: Homo sapiens; for viability at 0.01 µM / activity at 0.01 µM / viability at 0.1 µM / activity at 0.1 µM / viability at 1 µM / activity at 1 µM / viability at 10 µM / activity at 10 µM / viability at 100 µM / activity at 100 µM: Cardiomyocyte, 0.00 µM = 100.00; for viability at 0.1 µM / activity at 0.1 µM: 0.10 µM; for minimal effective concentration: iPSC-CM
In short: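 Human iPSC-derived cardiomyocytes were seeded on gelatin-coated 384-well plates at 5,000 cells per well and maintained for 12 d. Test chemicals were added as 10μL of 5× solutions to final concentrations of 0.01 to 100μM. Cells were stained with Hoechst 33342 and MitoTracker™ Orange, fixed in formaldehyde, and imaged by confocal high-content microscopy at 10× magnification.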

HUVECs = assay: High-content imaging cytotoxicity in HUVECs, 24 h; assay type: cell-based, human; settings: Homo sapiens, HUVEC, 24 h, HUVECs; for viability at 0.01 µM / activity at 0.01 µM / viability at 0.1 µM / activity at 0.1 µM / viability at 1 µM / activity at 1 µM / viability at 10 µM / activity at 10 µM / viability at 100 µM / activity at 100 µM: 0.00 µM = 100.00; for viability at 0.1 µM / activity at 0.1 µM: 0.10 µM; for minimal effective concentration: top concentration 100.00 µM
In short: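 HUVECs (passages 1–5) grown to monolayer over 3–5 d, then exposed 24 h at 37°C, 5% CO2; stained with Hoechst 33342, MitoTracker Orange and calcein AM and imaged at 10×. Readouts normalized to 0.5% DMSO vehicle, four-parameter logistic fit; POD at one-SD cutoff, 100μM assigned when no response.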

[2] = 24 hr, read-out: huvec.cyto.24hr
[3] = 24 hr, read-out: huvec.mito.24hr
[4] = 24 hr, read-out: huvec.mitoint.24hr
[5] = 24 hr, read-out: huvec.nma.24hr
[6] = 24 hrs, read-out: huvec.tc.24hrs

**Q.** What does the source list for `O=S(=O)(O)Oc1ccc(-c2cccc(Cl)c2)cc1Cl` [4-yl PCB 11 sulfate]?
**A.** viability at 0.01 µM ([1]; 1.5 h, read-out: cm.cam.90min): 100%; activity at 0.01 µM ([1]; 1.5 h, read-out: cm.mii.90min): 101%; activity at 0.01 µM ([1]; 1.5 h, read-out: cm.mito.90min): 99.5%; viability at 0.01 µM ([1]; 1.5 h, read-out: cm.tc.90min): 100%; viability at 0.1 µM ([1]; 1.5 h, read-out: cm.cam.90min): 99.7%; activity at 0.1 µM ([1]; 1.5 h, read-out: cm.mii.90min): 117%; activity at 0.1 µM ([1]; 1.5 h, read-out: cm.mito.90min): 99.5%; viability at 0.1 µM ([1]; 1.5 h, read-out: cm.tc.90min): 99.6%; viability at 1 µM ([1]; 1.5 h, read-out: cm.cam.90min): 101%; activity at 1 µM ([1]; 1.5 h, read-out: cm.mii.90min): 114%; activity at 1 µM ([1]; 1.5 h, read-out: cm.mito.90min): 101%; viability at 1 µM ([1]; 1.5 h, read-out: cm.tc.90min): 101%; viability at 10 µM ([1]; 1.5 h, read-out: cm.cam.90min): 98.7%; activity at 10 µM ([1]; 1.5 h, read-out: cm.mii.90min): 103%; activity at 10 µM ([1]; 1.5 h, read-out: cm.mito.90min): 98.5%; viability at 10 µM ([1]; 1.5 h, read-out: cm.tc.90min): 98.6%; viability at 100 µM ([1]; 1.5 h, read-out: cm.cam.90min): 99.5%; activity at 100 µM ([1]; 1.5 h, read-out: cm.mii.90min): 108%; activity at 100 µM ([1]; 1.5 h, read-out: cm.mito.90min): 99.1%; viability at 100 µM ([1]; 1.5 h, read-out: cm.tc.90min): 99.5%; viability at 0.01 µM ([1]; 24 h, read-out: cm.cam.24hrs): 88.6%; activity at 0.01 µM ([1]; 24 h, read-out: cm.mii.24hrs): 106%; activity at 0.01 µM ([1]; 24 h, read-out: cm.mito.24hrs): 87.2%; viability at 0.01 µM ([1]; 24 h, read-out: cm.tc.24hrs): 89.5%; viability at 0.1 µM ([1]; 24 h, read-out: cm.cam.24hrs): 101%; activity at 0.1 µM ([1]; 24 h, read-out: cm.mii.24hrs): 114%; activity at 0.1 µM ([1]; 24 h, read-out: cm.mito.24hrs): 102%; viability at 0.1 µM ([1]; 24 h, read-out: cm.tc.24hrs): 102%; viability at 1 µM ([1]; 24 h, read-out: cm.cam.24hrs): 102%; activity at 1 µM ([1]; 24 h, read-out: cm.mii.24hrs): 101%; activity at 1 µM ([1]; 24 h, read-out: cm.mito.24hrs): 101%; viability at 1 µM ([1]; 24 h, read-out: cm.tc.24hrs): 102%; viability at 10 µM ([1]; 24 h, read-out: cm.cam.24hrs): 85.6%; activity at 10 µM ([1]; 24 h, read-out: cm.mii.24hrs): 102%; activity at 10 µM ([1]; 24 h, read-out: cm.mito.24hrs): 82.8%; viability at 10 µM ([1]; 24 h, read-out: cm.tc.24hrs): 86.3%; viability at 100 µM ([1]; 24 h, read-out: cm.cam.24hrs): 10.5%; activity at 100 µM ([1]; 24 h, read-out: cm.mii.24hrs): 48.4%; activity at 100 µM ([1]; 24 h, read-out: cm.mito.24hrs): 5.02%; viability at 100 µM ([1]; 24 h, read-out: cm.tc.24hrs): 10.7%; minimal effective concentration ([1]; 1.5 h, read-out: cm.cam.90min POD): 100 µM; minimal effective concentration ([1]; 1.5 h, read-out: cm.mii.90min POD): 100 µM; minimal effective concentration ([1]; 1.5 h, read-out: cm.mito.90min POD): 100 µM; minimal effective concentration ([1]; 1.5 h, read-out: cm.tc.90min POD): 100 µM; minimal effective concentration ([1]; 24 h, read-out: cm.cam.24hrs POD): 5.91 µM; minimal effective concentration ([1]; 24 h, read-out: cm.mii.24hrs POD): 49.2 µM; minimal effective concentration ([1]; 24 h, read-out: cm.mito.24hrs POD): 7.07 µM; minimal effective concentration ([1]; 24 h, read-out: cm.tc.24hrs POD): 6.38 µM; viability at 0.01 µM (HUVECs; [2]): 97.3%; activity at 0.01 µM (HUVECs; [3]): 95.5%; activity at 0.01 µM (HUVECs; [4]): 95.8%; activity at 0.01 µM (HUVECs; [5]): 97.3%; viability at 0.1 µM (HUVECs; [2]): 86.8%; activity at 0.1 µM (HUVECs; [3]): 85.9%; activity at 0.1 µM (HUVECs; [4]): 118%; activity at 0.1 µM (HUVECs; [5]): 104%; viability at 1 µM (HUVECs; [2]): 97.8%; activity at 1 µM (HUVECs; [3]): 96.6%; activity at 1 µM (HUVECs; [4]): 99.3%; activity at 1 µM (HUVECs; [5]): 97%; viability at 10 µM (HUVECs; [2]): 108%; activity at 10 µM (HUVECs; [3]): 107%; activity at 10 µM (HUVECs; [4]): 93.5%; activity at 10 µM (HUVECs; [5]): 93.9%; viability at 100 µM (HUVECs; [2]): 58.3%; activity at 100 µM (HUVECs; [3]): 58.9%; activity at 100 µM (HUVECs; [4]): 54.2%; activity at 100 µM (HUVECs; [5]): 75.6%; minimal effective concentration (HUVECs; 24 hr, read-out: huvec.cyto.24hr POD): 48.8 µM; minimal effective concentration (HUVECs; 24 hr, read-out: huvec.mito.24hr POD): 45.1 µM; minimal effective concentration (HUVECs; 24 hr, read-out: huvec.mitoint.24hr POD): 10.8 µM; minimal effective concentration (HUVECs; 24 hr, read-out: huvec.nma.24hr POD): 2.98 µM; viability at 0.01 µM (HUVECs; [6]): 97.3%; viability at 0.1 µM (HUVECs; [6]): 86.8%; viability at 1 µM (HUVECs; [6]): 97.8%; viability at 10 µM (HUVECs; [6]): 108%; viability at 100 µM (HUVECs; [6]): 59.1%; minimal effective concentration (HUVECs; 24 hrs, read-out: huvec.tc.24hrs POD): 48.8 µM
